From patent publication US5045543A, “5-amino or substituted amino 1,2,3-triazoles useful as antimetastatic agents” (Merck & Co., Inc., priority 1989, dated 1991)
“Also recorded” adds a separate entry of the source.

How the values were obtained:
[1] = tested on: Normal Human Epidermal Keratinocytes (NHEK); assay: Inhibition of growth of Normal Human Epidermal Keratinocytes (NHEK); assay type: cell-based; conditions: for inhibition at 0.5 µg/mL / inhibition at 1 µg/mL / inhibition at 2 µg/mL: Homo sapiens, NHEK
Method: (§1) The inhibition of PRPP biosynthesis by Compound A and analogs supported the claimed use of the compounds as antiproliferative agents, since this inhibition should prevent all de novo and salvage biosynthesis of purine and pyrimidine nucleotides. […] The data from NHEK's is particularly important since it is the overproliferation of these cells that occurs in psoriasis.
(§2) In these experiments Murine keratinocyte transformed cell line PAPp26 was cultured in Dulbecco's modified Eagle's medium with 10% fetal calf serum at 37° C., 5% CO2. Each well of a 96 well plate was seeded with 2000 cells in 200 μl of each drug dilution in duplicate. A plate was stopped and fixed for each time point, stained with Giemsa and then read in a Titertek plate reader at 650 nm, and the absorbances were calibrated with known cell numbers on control plates. NHEK's were obtained from Clonetics Corporation at the secondary stage. Antiproliferative assays were done as for the murine keratinocytes. Media (KGM) without serum was supplied by Clonetics also. Normal Human Fibroblasts and MDBK cells were grown under the same conditions except that MDBK cells were grown at 41° C.

PRPP synthetase = PRPP synthetase activity / PRPP biosynthesis in cell based experiments
intact pig skin = assay: Labelled thymidine incorporation into intact pig skin; conditions: in vivo
[2] = tested on: pig skin epidermal basal cells (keratinocytes); assay: UV induced hyperproliferation in pig skin in vivo (topical antiproliferative activity); conditions: for effect on uv induced hyperproliferation: daily topical application; for LI (labelling index): uv exposed Gel #1 control 20.8, normal 7.6
Method: The topical antiproliferative activities, along with in vitro antiproliferative activities against human keratinocytes and fibroblasts, provide the biological data in support of the claimed utility:
In one experiment, a 20 kg pig was sedated and multiple areas of clipped skin were exposed to uv radiation sufficient to provoke a moderate hyperproliferative response within several days of exposure. On days 0, 1, 2 and 3 replicate irradiated sites were treated topically with Compound A in several vehicles or solvents. Topical preparations included a 2% drug in Gel #1, a combination of isopropyl myristate:Crodamol:ethanol, 1:1:2, or DMSO. The hyperproliferative response of the skin to uv was assessed on day 4 by injecting ^3 H-thymidine intradermally, and, 1 hour later, removing the sites by punch biopsy and processing the samples for autoradiography. Such autoradiographs indicate the number of epidermal cells in S phase synthesizing DNA and this is a common tool used by dermatologists to assess inhibition of proliferation in vivo. A single injection of methotrexate, 4 hours prior to ^3 H-thymidine injection was used as a positive control for inhibition of DNA synthesis. A labelling index, L.I., which is the percent of the total number of epidermal basal cells (keratinocytes) counted showing label incorporation. Four days after exposure to uv, the L.I. of pig skin increased from 7.6% to 20.8% (normal human skin ca. 2%, psoriatic lesions ca. 25%, for comparison).

Normal Human Fibroblasts = assay: Inhibition of fibroblast growth; assay type: cell-based; conditions: for inhibition at 0.1 µg/mL / inhibition at 0.2 µg/mL / inhibition at 0.4 µg/mL / inhibition at 1 µg/mL / inhibition at 2 µg/mL: Homo sapiens, Fibroblast
Method: as §1, §2

5-lipoxygenase = assay: Direct inhibition of 5-lipoxygenase; assay type: biochemical
[3] = tested on: a number of cell types including the Normal Human Epidermal Keratinocytes; assay: Antiproliferative activity (general statements); assay type: cell-based; conditions: in vitro; Compound A at the same concentrations (1 μg/ml)

NC(=O)c1nnn(Cc2cc(Cl)c(C(=O)c3ccc(Cl)cc3)c(Cl)c2)c1N [Compound A, 5-amino-1-(4-(4-chlorobenzoyl)-3,5-dichlorobenzyl)-1,2,3-triazole-4-carboxamide]
NHEK growth, ABS-background (650 nm) ([1]; 0.5 μg/ml, day 4, control .090): .085
NHEK growth, ABS-background (650 nm) ([1]; 0.5 μg/ml, day 5, control .190): .115
NHEK growth, ABS-background (650 nm) ([1]; 0.5 μg/ml, day 7, control .390): .190
NHEK growth, ABS-background (650 nm) ([1]; 1.0 μg/ml, day 4, control .090): .040
NHEK growth, ABS-background (650 nm) ([1]; 1.0 μg/ml, day 5, control .190): .050
NHEK growth, ABS-background (650 nm) ([1]; 1.0 μg/ml, day 7, control .390): .120
NHEK growth, ABS-background (650 nm) ([1]; 2.0 μg/ml, day 4, control .090): .005
NHEK growth, ABS-background (650 nm) ([1]; 2.0 μg/ml, day 5, control .190): .010
NHEK growth, ABS-background (650 nm) ([1]; 2.0 μg/ml, day 7, control .390): .050
inhibition at 0.5 µg/mL ([1]; 96 h, 0.5 μg/ml, day 4): 6%
inhibition at 1 µg/mL ([1]; 96 h, 1.0 μg/ml, day 4): 56%
inhibition at 2 µg/mL ([1]; 96 h, 2.0 μg/ml, day 4): 94%
inhibition at 0.5 µg/mL ([1]; 120 h, 0.5 μg/ml, day 5): 40%
inhibition at 1 µg/mL ([1]; 120 h, 1.0 μg/ml, day 5): 74%
inhibition at 2 µg/mL ([1]; 120 h, 2.0 μg/ml, day 5): 95%
inhibition at 0.5 µg/mL ([1]; 168 h, 0.5 μg/ml, day 7): 51%
inhibition at 1 µg/mL ([1]; 168 h, 1.0 μg/ml, day 7): 70%
inhibition at 2 µg/mL ([1]; 168 h, 2.0 μg/ml, day 7): 87%
inhibition of growth of NHEK ([1]; approximately 1.0 μg/ml): substantial inhibition
PRPP synthetase activity (PRPP synthetase): dramatically lowered
inhibition of labelled thymidine incorporation into intact pig skin (intact pig skin): inhibits
inhibition of uv induced hyperproliferation in pig skin ([2]; 2% formulation in Gel #1, topical): inhibits completely
effect on uv induced hyperproliferation ([2]; Crodamol): less effective
effect on uv induced hyperproliferation ([2]; DMSO): no effect
effect on uv induced hyperproliferation ([2]; Gel #1): dramatically reduced the uv induced hyperproliferation
topical antiproliferative activity ([2]; effects dependent upon vehicle): active topically as an antiproliferative; also recorded: Topical activity against keratinocyte proliferation has been demonstrated
UV induced hyperproliferation, % Inhibition ([2]; topical, Crodamol): 29%
Labelled Cells ([2]; topical, Crodamol, of 963 basal cells counted): 165
LI (labelling index) ([2]; topical, Crodamol): 17.0%
UV induced hyperproliferation, % Inhibition ([2]; topical, DMSO): 0%
Labelled Cells ([2]; topical, DMSO, of 744 basal cells counted): 150
LI (labelling index) ([2]; topical, DMSO): 20.1%
UV induced hyperproliferation, % Inhibition ([2]; topical, Gel #1): 100%
inhibition of proliferation compared with injected methotrexate ([2]; topical, Gel #1): comparable to that for injected methotrexate
Labelled Cells ([2]; topical, Gel #1, of 1020 basal cells counted): 57
LI (labelling index) ([2]; topical, Gel #1): 5.6%
Fibroblast growth, No. of Cells - seeding cells (Normal Human Fibroblasts; 0.1 μg/ml, 2 days, control 10.5 × 10^3): 4 × 10^3
Fibroblast growth, No. of Cells - seeding cells (Normal Human Fibroblasts; 0.1 μg/ml, 3 days, control 14 × 10^3): 5 × 10^3
Fibroblast growth, No. of Cells - seeding cells (Normal Human Fibroblasts; 0.1 μg/ml, 6 days, control 23 × 10^3): 19 × 10^3
Fibroblast growth, No. of Cells - seeding cells (Normal Human Fibroblasts; 0.2 μg/ml, 2 days, control 10.5 × 10^3): 5 × 10^3
Fibroblast growth, No. of Cells - seeding cells (Normal Human Fibroblasts; 0.2 μg/ml, 3 days, control 14 × 10^3): 2 × 10^3
Fibroblast growth, No. of Cells - seeding cells (Normal Human Fibroblasts; 0.2 μg/ml, 6 days, control 23 × 10^3): 16.5 × 10^3
Fibroblast growth, No. of Cells - seeding cells (Normal Human Fibroblasts; 0.4 μg/ml, 2 days, control 10.5 × 10^3): 7 × 10^3
Fibroblast growth, No. of Cells - seeding cells (Normal Human Fibroblasts; 0.4 μg/ml, 3 days, control 14 × 10^3): 6.5 × 10^3
Fibroblast growth, No. of Cells - seeding cells (Normal Human Fibroblasts; 0.4 μg/ml, 6 days, control 23 × 10^3): 13 × 10^3
Fibroblast growth, No. of Cells - seeding cells (Normal Human Fibroblasts; 1.0 μg/ml, 2 days, control 10.5 × 10^3): 2 × 10^3
Fibroblast growth, No. of Cells - seeding cells (Normal Human Fibroblasts; 1.0 μg/ml, 3 days, control 14 × 10^3): 0
Fibroblast growth, No. of Cells - seeding cells (Normal Human Fibroblasts; 1.0 μg/ml, 6 days, control 23 × 10^3): 6 × 10^3
Fibroblast growth, No. of Cells - seeding cells (Normal Human Fibroblasts; 2.0 μg/ml, 2 days, control 10.5 × 10^3): 2 × 10^3
Fibroblast growth, No. of Cells - seeding cells (Normal Human Fibroblasts; 2.0 μg/ml, 3 days, control 14 × 10^3): .5 × 10^3
Fibroblast growth, No. of Cells - seeding cells (Normal Human Fibroblasts; 2.0 μg/ml, 6 days, control 23 × 10^3): 4 × 10^3
inhibition at 0.1 µg/mL (Normal Human Fibroblasts; 48 h, 0.1 μg/ml, 2 days): 62%
inhibition at 0.2 µg/mL (Normal Human Fibroblasts; 48 h, 0.2 μg/ml, 2 days): 48%
inhibition at 0.4 µg/mL (Normal Human Fibroblasts; 48 h, 0.4 μg/ml, 2 days): 33%
inhibition at 1 µg/mL (Normal Human Fibroblasts; 48 h, 1.0 μg/ml, 2 days): 81%
inhibition at 2 µg/mL (Normal Human Fibroblasts; 48 h, 2.0 μg/ml, 2 days): 81%
inhibition at 0.1 µg/mL (Normal Human Fibroblasts; 72 h, 0.1 μg/ml, 3 days): 64%
inhibition at 0.2 µg/mL (Normal Human Fibroblasts; 72 h, 0.2 μg/ml, 3 days): 86%
inhibition at 0.4 µg/mL (Normal Human Fibroblasts; 72 h, 0.4 μg/ml, 3 days): 54%
inhibition at 1 µg/mL (Normal Human Fibroblasts; 72 h, 1.0 μg/ml, 3 days): 100%
inhibition at 2 µg/mL (Normal Human Fibroblasts; 72 h, 2.0 μg/ml, 3 days): 96%
inhibition at 0.1 µg/mL (Normal Human Fibroblasts; 144 h, 0.1 μg/ml, 6 days): 18%
inhibition at 0.2 µg/mL (Normal Human Fibroblasts; 144 h, 0.2 μg/ml, 6 days): 28%
inhibition at 0.4 µg/mL (Normal Human Fibroblasts; 144 h, 0.4 μg/ml, 6 days): 44%
inhibition at 1 µg/mL (Normal Human Fibroblasts; 144 h, 1.0 μg/ml, 6 days): 74%
inhibition at 2 µg/mL (Normal Human Fibroblasts; 144 h, 2.0 μg/ml, 6 days): 83%
inhibition of growth of Normal Human Fibroblasts (Normal Human Fibroblasts; approximately 1.0 μg/ml): substantial inhibition
direct inhibition of 5-lipoxygenase (5-lipoxygenase): no evidence of direct inhibition
antiproliferative activity [3]: antiproliferative at the same concentrations
